# Laboratory results from ChEMBL document CHEMBL1681677 (Bioorg Med Chem Lett, 2011).
# Columns and labels:
# Carbonic anhydrase 1 = Carbonic anhydrase 1 (Homo sapiens, UniProt P00915)
# [1] = biological target: Carbonic anhydrase 5A, mitochondrial (Homo sapiens, UniProt P35218)
# [2] = biological target: Carbonic anhydrase 5B, mitochondrial (Homo sapiens, UniProt Q9Y2D0)
# Carbonic anhydrase 2 = Carbonic anhydrase 2 (Homo sapiens, UniProt P00918)
# Chain of Carbonic anhydrase 5B, mitochondrial (Q9Y2D0 whole entry): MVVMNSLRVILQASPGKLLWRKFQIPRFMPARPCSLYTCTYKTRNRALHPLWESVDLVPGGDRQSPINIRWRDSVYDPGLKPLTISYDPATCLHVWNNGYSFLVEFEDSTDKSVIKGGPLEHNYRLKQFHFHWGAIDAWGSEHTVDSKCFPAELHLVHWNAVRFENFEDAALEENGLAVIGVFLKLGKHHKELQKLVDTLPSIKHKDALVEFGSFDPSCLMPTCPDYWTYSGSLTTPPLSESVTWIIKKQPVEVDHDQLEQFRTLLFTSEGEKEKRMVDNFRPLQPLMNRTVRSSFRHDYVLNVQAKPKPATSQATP
# Chain of Carbonic anhydrase 5A, mitochondrial (P35218 whole entry): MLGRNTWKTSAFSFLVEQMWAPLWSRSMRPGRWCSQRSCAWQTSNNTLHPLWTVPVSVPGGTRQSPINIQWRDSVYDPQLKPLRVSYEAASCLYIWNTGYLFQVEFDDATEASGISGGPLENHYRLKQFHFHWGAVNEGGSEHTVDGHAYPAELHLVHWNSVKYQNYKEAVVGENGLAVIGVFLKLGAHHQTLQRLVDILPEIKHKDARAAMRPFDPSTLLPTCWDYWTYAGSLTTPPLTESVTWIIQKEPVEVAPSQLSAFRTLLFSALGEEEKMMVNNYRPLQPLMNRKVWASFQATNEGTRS
# Chain of Carbonic anhydrase 1 (P00915 whole entry): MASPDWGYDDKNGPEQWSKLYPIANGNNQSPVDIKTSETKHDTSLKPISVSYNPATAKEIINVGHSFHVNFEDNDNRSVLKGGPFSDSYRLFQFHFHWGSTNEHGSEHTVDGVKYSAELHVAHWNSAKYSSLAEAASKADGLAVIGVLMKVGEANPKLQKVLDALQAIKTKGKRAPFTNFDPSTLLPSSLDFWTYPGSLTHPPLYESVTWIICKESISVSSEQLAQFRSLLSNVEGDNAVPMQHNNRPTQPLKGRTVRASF
Ki (Carbonic anhydrase 1) [nM],Ki [1] [nM],Ki [2] [nM],Ki (Carbonic anhydrase 2) [nM],SMILES
920,16.6,40.3,1560,CC1(C)C2CC[C@]1(CS(=O)(=O)NCc1ccc(S(N)(=O)=O)cc1)C(=O)C2
1040,27.5,67.3,2460,CC1(C)C2CC[C@@]1(CS(=O)(=O)NCc1ccc(S(N)(=O)=O)cc1)C(=O)C2
